Assay results from US20260285855A1, “HETEROARYL DERIVATIVES AS DDRS INHIBITORS” (CHIESI FARMACEUTICI S.P.A., priority 2023, published 2026).
Where two headings read alike, the source gives them in different places.

What was measured:
[1] = target: T1, DDR2 (Homo sapiens, UniProt Q16832); assay: LanthaScreen Europium Kinase Binding assay, DDR2
T1 construct: purchased Life Technologies
T1 sequence (Q16832 22-855): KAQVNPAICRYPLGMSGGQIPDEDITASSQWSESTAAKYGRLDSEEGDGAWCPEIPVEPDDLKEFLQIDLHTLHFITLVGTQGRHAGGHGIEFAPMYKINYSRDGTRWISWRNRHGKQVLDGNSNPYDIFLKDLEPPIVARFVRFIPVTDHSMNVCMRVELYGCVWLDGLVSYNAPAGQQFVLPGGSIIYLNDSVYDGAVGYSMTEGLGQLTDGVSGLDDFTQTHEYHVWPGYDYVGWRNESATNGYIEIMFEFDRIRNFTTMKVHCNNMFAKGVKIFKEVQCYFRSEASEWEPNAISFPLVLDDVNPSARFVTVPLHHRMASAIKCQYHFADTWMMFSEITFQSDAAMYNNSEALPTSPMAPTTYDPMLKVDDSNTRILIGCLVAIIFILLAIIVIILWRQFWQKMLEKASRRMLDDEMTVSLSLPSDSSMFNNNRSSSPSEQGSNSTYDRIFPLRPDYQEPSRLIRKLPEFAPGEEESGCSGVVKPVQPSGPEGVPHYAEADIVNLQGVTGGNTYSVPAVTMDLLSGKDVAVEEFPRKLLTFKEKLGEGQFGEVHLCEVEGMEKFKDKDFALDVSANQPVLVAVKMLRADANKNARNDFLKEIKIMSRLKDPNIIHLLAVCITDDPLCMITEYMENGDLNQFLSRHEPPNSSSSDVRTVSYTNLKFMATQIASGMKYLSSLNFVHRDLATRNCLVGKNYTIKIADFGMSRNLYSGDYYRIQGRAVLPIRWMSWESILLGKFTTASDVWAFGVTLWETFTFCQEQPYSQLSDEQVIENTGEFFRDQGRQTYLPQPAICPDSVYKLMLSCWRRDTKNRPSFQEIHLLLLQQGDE
Protocol: (§1) DDR1 and DDR2 binding assays were performed using Life Technologies LanthaScreen™ Europium Kinase Binding assay. […] IC50 values were determined in GraphPad Prism 7.0 software, using 4 parameter model: log (inhibitor) vs. response. IC50 values were converted in Ki using the Cheng-Prusoff equation (Ki-IC50/(1+ [Tracer]/Kd).

[2] = target: T2, DDR1 (Homo sapiens, UniProt Q08345); assay: LanthaScreen Europium Kinase Binding assay, DDR1
T2 construct: purchased Carna Biosciences
T2 sequence (Q08345 19-913): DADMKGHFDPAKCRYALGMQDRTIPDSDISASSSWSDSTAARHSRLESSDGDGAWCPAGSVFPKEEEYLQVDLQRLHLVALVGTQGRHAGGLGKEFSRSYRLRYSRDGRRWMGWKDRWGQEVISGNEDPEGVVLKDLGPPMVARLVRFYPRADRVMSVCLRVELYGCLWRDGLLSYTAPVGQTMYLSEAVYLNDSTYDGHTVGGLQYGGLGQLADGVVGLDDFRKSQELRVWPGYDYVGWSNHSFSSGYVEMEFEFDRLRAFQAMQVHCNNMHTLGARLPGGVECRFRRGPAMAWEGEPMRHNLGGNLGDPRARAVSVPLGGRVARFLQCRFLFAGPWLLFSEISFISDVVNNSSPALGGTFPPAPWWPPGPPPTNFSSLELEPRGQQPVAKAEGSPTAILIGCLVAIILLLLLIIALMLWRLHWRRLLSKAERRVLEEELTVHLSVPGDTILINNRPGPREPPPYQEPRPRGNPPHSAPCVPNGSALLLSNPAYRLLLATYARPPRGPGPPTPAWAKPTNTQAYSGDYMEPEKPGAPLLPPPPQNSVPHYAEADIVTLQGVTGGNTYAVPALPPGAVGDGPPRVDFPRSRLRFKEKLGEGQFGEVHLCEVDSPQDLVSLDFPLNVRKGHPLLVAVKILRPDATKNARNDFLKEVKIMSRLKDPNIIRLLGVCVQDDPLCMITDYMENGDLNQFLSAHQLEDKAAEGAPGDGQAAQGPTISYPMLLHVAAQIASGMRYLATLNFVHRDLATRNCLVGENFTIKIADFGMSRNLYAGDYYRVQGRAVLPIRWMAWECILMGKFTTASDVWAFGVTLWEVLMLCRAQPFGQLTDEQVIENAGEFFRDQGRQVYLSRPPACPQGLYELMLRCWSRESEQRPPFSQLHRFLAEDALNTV
Protocol: as §1

[3] = 5 nM DDR2, 10 nM Kinase Tracer 178, 1 h at rt, Ki from IC50 by Cheng-Prusoff, read-out: Ki DDR2
[4] = 5 nM DDR1, 20 nM Kinase Tracer 178, 1 h at rt, Ki from IC50 by Cheng-Prusoff, read-out: Ki DDR1
[5] = same binding assay, numeric values
[6] = same binding assay, numeric values, read-out: DDR2 Ki
[7] = same binding assay, numeric values, read-out: DDR1 Ki

Row | Compound | Ki [1, 3] | Ki [2, 4] | DDR2 Ki (nM) [1, 5] | Ki [1, 6] | DDR1 Ki (nM) [2, 5] | Ki [2, 7]
1 | Cc1cnc(NC(=O)N(C)C2CC3(C2)CN(C(=O)c2cnn4ccn(C)c24)C3)cc1C(F)(F)F [Example 303, 1-methyl-1-(2-(1-methyl-1H-imidazo[1,2-b]pyrazole-7-carbonyl)-2-azaspiro[3.3]heptan-6-yl)-3-(5-methyl-4-(trifluoromethyl)pyridin-2-yl)urea] | 5 to 25 nM | < 5 nM | – | – | – | –
2 | O=C(Nc1cncc(C(F)(F)F)c1)NC1CC2(C1)CN(c1cnc3[nH]ncc3c1)C2 [Example 304, 1-(2-(1H-pyrazolo[3,4-b]pyridin-5-yl)-2-azaspiro[3.3]heptan-6-yl)-3-(5-(trifluoromethyl)pyridin-3-yl)urea] | 5 to 25 nM | < 5 nM | – | – | – | –
3 | O=C(Nc1cc(C(F)(F)F)cnn1)NC1CC2(C1)CN(c1cnc3[nH]ncc3c1)C2 [Example 306, 1-(2-(1H-pyrazolo[3,4-b]pyridin-5-yl)-2-azaspiro[3.3]heptan-6-yl)-3-(5-(trifluoromethyl)pyridazin-3-yl)urea] | 5 to 25 nM | < 5 nM | – | – | – | –
4 | Cc1ccc(OC(F)(F)F)cc1NC(=O)NC1CC2(C1)CN(c1cnc3[nH]ncc3c1)C2 [Example 307, 1-(2-(1H-pyrazolo[3,4-b]pyridin-5-yl)-2-azaspiro[3.3]heptan-6-yl)-3-(2-methyl-5-(trifluoromethoxy)phenyl)urea] | 25 to 100 nM | 5 to 25 nM | – | – | – | –
5 | CN(C(=O)Nc1cc(C(F)(F)F)cc(Br)n1)C1CC2(C1)CN(C(=O)c1cnn3ccn(C)c13)C2 [Example 308, 3-(6-bromo-4-(trifluoromethyl)pyridin-2-yl)-1-methyl-1-(2-(1-methyl-1H-imidazo[1,2-b]pyrazole-7-carbonyl)-2-azaspiro[3.3]heptan-6-yl)urea] | < 5 nM | < 5 nM | – | – | – | –
6 | CCc1ncc(C(F)(F)F)cc1NC(=O)N(C)C1CC2(C1)CN(C(=O)c1cnn3ccn(C)c13)C2 [Example 310, 3-(2-ethyl-5-(trifluoromethyl)pyridin-3-yl)-1-methyl-1-(2-(1-methyl-1H-imidazo[1,2-b]pyrazole-7-carbonyl)-2-azaspiro[3.3]heptan-6-yl)urea] | 25 to 100 nM | 5 to 25 nM | – | – | – | –
7 | COc1c(CO)cc(C(F)(F)F)cc1NC(=O)NC1CC2(C1)CN(c1cnc3[nH]ncc3c1)C2 [Example 312, 1-(2-(1H-pyrazolo[3,4-b]pyridin-5-yl)-2-azaspiro[3.3]heptan-6-yl)-3-(3-(hydroxymethyl)-2-methoxy-5-(trifluoromethyl)phenyl)urea] | 5 to 25 nM | < 5 nM | – | – | – | –

Other lines, results leading:

Row | Ki [1, 3] | Ki [2, 4] | DDR2 Ki (nM) [1, 5] | Ki [1, 6] | DDR1 Ki (nM) [2, 5] | Ki [2, 7] | Compound
8 | < 5 nM | < 5 nM | – | – | – | – | O=C(CC1CC2(C1)CN(C(=O)c1cnn3ccn(C(F)F)c13)C2)Nc1cc(OC(F)(F)F)ccn1 [Example 302, 2-(2-(1-(difluoromethyl)-1H-imidazo[1,2-b]pyrazole-7-carbonyl)-2-azaspiro[3.3]heptan-6-yl)-N-(4-(trifluoromethoxy)pyridin-2-yl)acetamide]
9 | 5 to 25 nM | < 5 nM | – | – | – | – | CN(C(=O)Nc1cc(C(F)(F)C(F)(F)F)ccn1)C1CC2(C1)CN(C(=O)c1cnn3ccn(C)c13)C2 [Example 305, 1-methyl-1-(2-(1-methyl-1H-imidazo[1,2-b]pyrazole-7-carbonyl)-2-azaspiro[3.3]heptan-6-yl)-3-(4-(perfluoroethyl)pyridin-2-yl)urea]
10 | 5 to 25 nM | < 5 nM | – | – | – | – | CCc1ncc(C(F)(F)F)cc1NC(=O)NC1CC2(C1)CN(C(=O)c1cnn3ccn(C)c13)C2 [Example 309, 1-(2-ethyl-5-(trifluoromethyl)pyridin-3-yl)-3-(2-(1-methyl-1H-imidazo[1,2-b]pyrazole-7-carbonyl)-2-azaspiro[3.3]heptan-6-yl)urea]
11 | 5 to 25 nM | < 5 nM | – | – | – | – | Cn1ccn2ncc(C(=O)N3CC4(CC(OC(=O)Nc5cc(C(F)(F)F)cnn5)C4)C3)c12 [Example 311, 2-(1-methyl-1H-imidazo[1,2-b]pyrazole-7-carbonyl)-2-azaspiro[3.3]heptan-6-yl(5-(trifluoromethyl)pyridazin-3-yl)carbamate]
12 | – | – | did not show a binding affinity | > 500 nM | did not show a binding affinity | > 500 nM | O=C(NC1CC2(C1)CN(C(=O)c1cnn3ccncc13)C2)c1cccc(C(F)(F)F)c1 [Example C1, N-(2-(pyrazolo[1,5-a]pyrazine-3-carbonyl)-2-azaspiro[3.3]heptan-6-yl)-3-(trifluoromethyl)benzamide, reference compound]
13 | – | – | did not show a binding affinity | > 500 nM | did not show a binding affinity | > 500 nM | O=C(Cc1cccc(C(F)(F)F)c1)NC1CC2(C1)CN(C(=O)c1cnn3ccncc13)C2 [Example C2, N-(2-(pyrazolo[1,5-a]pyrazine-3-carbonyl)-2-azaspiro[3.3]heptan-6-yl)-2-(3-(trifluoromethyl)phenyl)acetamide, reference compound]
14 | – | – | did not show a binding affinity | > 500 nM | did not show a binding affinity | > 500 nM | O=C(NC1CC2(C1)CN(C(=O)Nc1cccc(C(F)(F)F)c1)C2)c1cnn2ccncc12 [Example C3, N-(2-((3-(trifluoromethyl)phenyl)carbamoyl)-2-azaspiro[3.3]heptan-6-yl) pyrazolo[1,5-a]pyrazine-3-carboxamide, reference compound]
